In US20040175378A1, “Selected antibody compositions and methods for binding to aminophospholipids” (Board of Regents, The University of Texas System, priority 2002, published 2004):

B1: IL-1α: recombinant murine interleukin-1 alpha (protein, UniProt P01582 115-270, looked up)
Interleukin-1 alpha: SAPYTYQSDLRYKLMKLVRQKFVMNDSLNQTIYQDVDKHYLSTTWLNDLQQEVKFDMYAYSSGGDDSKYPVTLKISDSQLFVSAQGEDQPVLLKELPETPKLITGSETDLIFFWKSINSKNYFTSAAYPELFIATKEQSRVHLARGLPSMTDFQIS
B2: IL-1β: recombinant murine interleukin-1 beta (protein, UniProt P10749 118-269, looked up)
Interleukin-1 beta: VPIRQLHYRLRDEQQKSLVLSDPYELKALHLNGQNINQQVIFSMSFVQGEPSNDKIPVALGLKGKNLYLSCVMKDGTPTLQLESVDPKQYPKKKMEKRFVFNKIEVKSKVEFESAEFPNWYISTSQAEHKPVFLGNNSGQDIIDFTMESVSS

Assays:
[1] = tested on: bEnd.3 endothelial cells; test: PS translocation and viability of bEnd.3 cells treated with H2O2; conditions: low levels of H2O2
[2] = tested on: HUVEC and HMVEC; test: Induction of PS exposure on endothelial cells, FACS of 3G4 binding; assay type: cell-based, Human; conditions: 10 nM, 24 hrs
Method: (§1) FIG. 24A and FIG. 24B. Induction of PS exposure on endothelial cells by docetaxel. Human umbilical vein endothelial cells (HUVEC) and human microvessel endothelial cells (HMVEC) were treated with 10 nM of docetaxel for 24 hrs. […] The cells were then washed twice, FITC labeled goat anti-mouse IgG was added and the cells incubated for a further 30 mins. on ice. The cells were then washed and analyzed by FACS using a FACSCalibur cytometer (Becton-Dickinson, San Jose, Calif.) with CellQuest acquisition software.
The induction of PS exposure on endothelial cells by subclinical concentrations of docetaxel was examined in vitro by FACS analysis. Human umbilical vein endothelial cells (HUVEC) and human microvessel endothelial cells (HMVEC) were treated with 10 nM of docetaxel for 24 hrs and examined by FACS. […] Docetaxel incubations for 48 and 72 hrs were also conducted.

[3] = tested on: 3LL, Colo26 and MDA-MB-435 cells; test: Induction of PS exposure on tumor cell lines, FACS of 3G4 binding; assay type: cell-based; conditions: 10 nM, 24 hrs, Colo26, MDA-MB-435
Method: as §1, with “25A, FIG. 25B” for “24A”, “25C.” for “24B.”, “tumor cell lines” for “endothelial cells”, “Mouse lewis lung carcinoma 3LL, mouse colon carcinoma Colo26” for “Human umbilical vein endothelial cells (HUVEC)”, “breast cancer MDA-MB-435” for “microvessel endothelial”, “cells” for “cells (HMVEC)”
The in vitro induction of PS exposure by subclinical concentrations of docetaxel was also examined by FACS analysis using a panel of tumor cell lines. Mouse lewis lung carcinoma 3LL, mouse colon carcinoma Colo26 and human breast cancer MDA-MB-435 cells were treated with 10 nM of docetaxel for 24 hrs and examined by FACS. […] Docetaxel incubations for 48 and 72 hrs were also conducted.

[4] = tested on: ABAE cells; test: PS exposure by 125I-annexin V binding; assay type: cell-based, bovine; conditions: 24 h
Method: (§2) All reagents were diluted in medium containing 10% serum and incubated with the cells at 37° C. for 24 h.
(§3) To study the effect of hypoxia, cells were seeded on 24 well plates and were incubated in a humidified normoxic atmosphere (21% O2, 5% CO2) for 48 h before being transferred to a humidified hypoxic atmosphere (1% O2, 5% CO2, 94% N2) in a sealed chamber (Billups Rothenberg Inc., Del Mar, Calif.). Cells were incubated in a hypoxic chamber for 24 h at 37° C. and were then returned to a normoxic environment for 4 h at 37° C. The cells were compared to a parallel culture from an identical passage, seeded on the same day and maintained entirely under normoxic conditions. In some studies, IL-1α (10 ng/ml) and TNFα (20 ng/ml) were added to the medium before transfer to the hypoxic chamber.
(§4) After treatment with the reagents described above, treated and control cells were incubated with 7.1 pmoles of ^125I-labeled annexin V (200 μl/well) in the binding buffer. After 2 h incubation at room temperature, cells were washed extensively and dissolved in 0.5 M of NaOH. The entire volume of 0.5 ml was transferred to plastic tubes and counted in a gamma counter. Non-specific binding was determined in the presence of 5 mM EDTA and was subtracted from experimental values. The results were expressed as net pmoles of cell-bound annexin V, normalized per 1×10^6 cells.
(§5) Maximal binding of annexin V was determined on cells simultaneously treated with actinomycin D and TNFα (50 ng/ml of each component). As has been previously reported, these agents cause apoptosis and PS exposure in 90-100% of endothelial cells (Lucas et al., 1998). Basal binding of ^125I-annexin V to untreated cells was determined in the presence of medium with 10% serum. The amount of ^125I-annexin V that bound to the untreated cultures was subtracted from that in the treated cultures. Exposure of PS was calculated according to the following formula: cell-bound annexin V (pmoles) under experimental conditions divided by maximal annexin V binding (pmoles), multiplied by 100. Each study was performed in duplicate and was performed at least three times. Mean values were calculated. The SE of the mean values from three separate experiments was less than 5%.

[5] = tested on: bEnd.3 cells; test: PS exposure by 125I-annexin V binding; assay type: cell-based, Mouse; conditions: bEnd.3, 24 h
Method: as §2, §3, §4, §5

| Molecule | ^125I-Annexin V (% of Max binding) ([4]; 20 ng/ml) | ^125I-Annexin V (% of Max binding) ([5]; 20 ng/ml) | also measured |
| --- | --- | --- | --- |
| OO [Hydrogen peroxide, hydrogen peroxide] |  |  | cell viability [1]: 95% |
| CC(=O)O[C@@]12CO[C@@H]1C[C@H](O)[C@@]1(C)C(=O)[C@H](O)C3=C(C)[C@@H](OC(=O)[C@H](O)[C@@H](NC(=O)OC(C)(C)C)c4ccccc4)C[C@@](O)([C@@H](OC(=O)c4ccccc4)[C@H]21)C3(C)C [docetaxel] |  |  | 3G4 binding as compared to untreated cells [2]: significant increase in 3G4 binding; 3G4 binding as compared with untreated cells [3]: significant increase in 3G4 binding |
| FGF-2: human fibroblast growth factor-2 | 0% | 0% |  |
| IL-6: interleukin-6 | 0% | 0% |  |
| IL-8: interleukin-8 | 0% | 0% |  |
| IL-10: interleukin-10 | 0% | 0% |  |
| Interferon |  |  | ^125I-Annexin V (% of Max binding) ([4]; 40 ng/ml): 8.6%; ^125I-Annexin V (% of Max binding) ([5]; 40 ng/ml): 2.8% |
| Scatter factor: recombinant hepatocyte growth factor |  |  | ^125I-Annexin V (% of Max binding) ([4]; 40 ng/ml): 0%; ^125I-Annexin V (% of Max binding) ([5]; 40 ng/ml): 0% |
| TGF β1: growth factor | 0% | 0% |  |
| TNFα | 7.4% | 13.7% |  |
| Thrombin |  |  | ^125I-Annexin V (% of Max binding) ([4]; 50 nM): 8.8%; ^125I-Annexin V (% of Max binding) ([5]; 50 nM): 17.4% |
| VEGF | 0% | 0% |  |
| B1 |  |  | ^125I-Annexin V (% of Max binding) ([4]; 10 ng/ml): 6.4%; ^125I-Annexin V (% of Max binding) ([5]; 10 ng/ml): 7.5% |
| B2 |  |  | ^125I-Annexin V (% of Max binding) ([4]; 10 ng/ml): 5.8%; ^125I-Annexin V (% of Max binding) ([5]; 10 ng/ml): 5.5% |
